# Patent US11512080B2, “CRBN ligands and uses thereof” (Kymera Therapeutics, Inc., priority 2018, dated 2022)
# Biological target: His-tagged CRBN-DDB1 complex (Homo sapiens (Human), UniProt Q96SW2)
# Test: Time-Resolved Fluorescence Resonance Energy Transfer (TR-FRET) assay
# Assay type: binding
# Details: competition with Cy5-labeled thalidomide (8 nM), 1 hour at room temperature; read-out: CRBN HTRF IC50
# Experimental: The mixture were incubated at room temperature for 1 hour. […] Quantitative loss of FRET efficiency as a function of compound concentrations was fitted by a four-parameter Logistic Function using GraphPad Prism 7.0 and the IC50 values were reported for each compound.
# The compound numbers correspond to the compound numbers in Table 1.
# Chain of His-tagged CRBN-DDB1 complex (Q96SW2 whole entry): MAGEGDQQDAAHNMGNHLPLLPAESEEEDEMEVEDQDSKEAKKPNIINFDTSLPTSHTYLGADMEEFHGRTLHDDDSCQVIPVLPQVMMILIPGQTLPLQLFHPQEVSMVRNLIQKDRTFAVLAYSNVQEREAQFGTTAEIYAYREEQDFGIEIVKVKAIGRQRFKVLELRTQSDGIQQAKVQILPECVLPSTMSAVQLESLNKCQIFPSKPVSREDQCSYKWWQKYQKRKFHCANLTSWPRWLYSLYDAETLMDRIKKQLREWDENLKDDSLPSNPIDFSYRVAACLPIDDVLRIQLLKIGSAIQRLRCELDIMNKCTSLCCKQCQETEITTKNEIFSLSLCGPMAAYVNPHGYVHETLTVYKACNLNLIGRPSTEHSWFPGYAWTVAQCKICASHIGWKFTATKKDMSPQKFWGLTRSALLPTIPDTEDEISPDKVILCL
# Chain of His-tagged CRBN-DDB1 complex (Q16531 whole entry partner): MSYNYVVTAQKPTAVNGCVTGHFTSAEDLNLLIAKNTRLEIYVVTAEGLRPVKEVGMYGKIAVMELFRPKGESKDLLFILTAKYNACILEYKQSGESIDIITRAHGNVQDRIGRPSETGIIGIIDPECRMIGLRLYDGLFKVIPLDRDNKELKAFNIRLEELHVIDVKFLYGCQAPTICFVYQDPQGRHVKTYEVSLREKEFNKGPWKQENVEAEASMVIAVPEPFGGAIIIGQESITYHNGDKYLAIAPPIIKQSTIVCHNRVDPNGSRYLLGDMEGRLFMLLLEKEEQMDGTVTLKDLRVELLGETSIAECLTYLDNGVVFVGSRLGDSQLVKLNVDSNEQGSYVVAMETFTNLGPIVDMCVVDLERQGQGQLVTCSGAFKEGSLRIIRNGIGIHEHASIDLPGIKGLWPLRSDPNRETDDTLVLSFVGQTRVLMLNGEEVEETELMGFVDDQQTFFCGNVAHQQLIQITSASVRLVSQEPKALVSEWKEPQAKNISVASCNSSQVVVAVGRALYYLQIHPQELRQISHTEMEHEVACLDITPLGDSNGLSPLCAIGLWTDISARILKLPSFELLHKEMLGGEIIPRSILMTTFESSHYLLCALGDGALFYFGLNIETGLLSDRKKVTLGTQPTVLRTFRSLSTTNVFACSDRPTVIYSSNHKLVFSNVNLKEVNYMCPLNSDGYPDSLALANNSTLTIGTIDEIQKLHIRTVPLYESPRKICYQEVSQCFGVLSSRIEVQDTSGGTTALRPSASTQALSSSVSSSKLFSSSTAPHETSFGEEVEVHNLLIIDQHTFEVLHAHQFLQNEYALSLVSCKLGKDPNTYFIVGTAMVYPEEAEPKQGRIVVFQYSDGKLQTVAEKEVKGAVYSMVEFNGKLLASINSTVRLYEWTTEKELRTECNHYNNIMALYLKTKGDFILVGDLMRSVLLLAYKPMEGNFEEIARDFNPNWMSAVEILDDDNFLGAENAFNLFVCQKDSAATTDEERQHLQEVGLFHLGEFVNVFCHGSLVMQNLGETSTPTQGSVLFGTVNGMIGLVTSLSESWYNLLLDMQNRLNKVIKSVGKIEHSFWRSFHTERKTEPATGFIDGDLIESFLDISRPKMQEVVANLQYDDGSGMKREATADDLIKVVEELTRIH
row,Structure (SMILES),IC50 [µM]
1,O=C1CCC(Sc2nc3ccc(Cl)cc3[nH]2)C(=O)N1 (stereo not drawn) [Compound I-8],1 to 10
2,Cn1ccc(N2CCC(=O)NC2=O)n1 [Compound I-76],> 100

# Same assay, conditions: read-out: CRBN HTRF IC50
row,Structure (SMILES),IC50 [µM]
1,O=C1CCC(Sc2cccc[n+]2[O-])C(=O)N1 (stereo not drawn) [Compound I-110],1 to 10
2,"COc1ccc(SC2CCC(=O)NC2=O)cc1 (stereo not drawn) [Compound I-9, 3-((4-methoxyphenyl)thio)piperidine-2,6-dione]",10 to 100
3,"Cn1c(=O)c(C2SC(=O)NC2=O)cc2ccccc21 (stereo not drawn) [Compound I-118, 5-(1-methyl-2-oxo-1,2-dihydroquinolin-3-yl)thiazolidine-2,4-dione]",10 to 100
4,Cc1ccc(SC2CCC(=O)NC2=O)c(C)c1 (stereo not drawn) [Compound I-79],1 to 10
5,O=C1CCC(Sc2nc3ccccc3[nH]2)C(=O)N1 (stereo not drawn) [Compound I-96],10 to 100
6,CCOc1cccc(SC2CCC(=O)NC2=O)c1 (stereo not drawn) [Compound I-86],1 to 10
7,CC(C)c1ccc(SC2CCC(=O)NC2=O)cc1 (stereo not drawn) [Compound I-68],1 to 10
8,O=C1CCC(Sc2ccccc2C(F)(F)F)C(=O)N1 (stereo not drawn) [Compound I-109],10 to 100
9,"O=C1CCC(Sc2cccc(Br)c2)C(=O)N1 (stereo not drawn) [Compound I-108, 3-((3-Bromophenyl)thio)piperidine-2,6-dione]",1 to 10
10,"Cc1cc(O)nc(SC2CCC(=O)NC2=O)n1 (stereo not drawn) [Compound I-95, 3-((4-hydroxy-6-methylpyrimidin-2-yl)thio)piperidine-2,6-dione]",10 to 100
11,O=C1CCC(Sc2ccc(Cl)cn2)C(=O)N1 (stereo not drawn) [Compound I-90],1 to 10
12,O=C1CCC(Sc2nc(=O)cc(-c3ccccc3)[nH]2)C(=O)N1 (stereo not drawn) [Compound I-93],10 to 100
13,"Nc1ccc(SC2CCC(=O)NC2=O)cc1 (stereo not drawn) [Compound I-14, 3-(4-Amino-phenylsulfanyl)-piperidine-2,6-dione]",10 to 100
14,CCN(CC)c1ccc(SC2CCC(=O)NC2=O)cc1 (stereo not drawn) [Compound I-135],1 to 10
15,O=C1CCC(Sc2nc3ccc(Cl)cc3[nH]2)C(=O)N1 (stereo not drawn) [Compound I-94],1 to 10
16,"NC(=O)c1ccnc(SC2CCC(=O)NC2=O)c1 (stereo not drawn) [Compound I-130, 2-((2,6-Dioxopiperidin-3-yl)thio)isonicotinamide]",1 to 10
17,"O=C1CCC(Sc2cccc(CO)c2)C(=O)N1 (stereo not drawn) [Compound I-127, 3-((3-(Hydroxymethyl)phenyl)thio)piperidine-2,6-dione]",10 to 100
18,O=C1CCC(Sc2ccccc2O)C(=O)N1 (stereo not drawn) [Compound I-74],1 to 10
19,CCCCc1ccc(OC2CCC(=O)NC2=O)cc1 (stereo not drawn) [Compound I-124],1 to 10
20,"O=C1CCN(Cc2ccccc2)C(=O)N1 [Compound I-24, 1-Benzyl-dihydro-pyrimidine-2,4-dione]",10 to 100
21,O=C1CCC(Sc2cccc(Cl)c2)C(=O)N1 (stereo not drawn) [Compound I-122],1 to 10
22,CCCCc1ccc(SC2CCC(=O)NC2=O)cc1 (stereo not drawn) [Compound I-84],1 to 10
